In BindingDB's records for doi:10.1016/j.bmcl.2007.04.053 (Merck Research Laboratories, 2007):

Assay: Inhibition of chemotaxis in human MCP1 monocytes

| IC50 [nM] | SMILES |
| --- | --- |
| 0.15 | CC(C)[C@]1(C(=O)NCc2cc(F)cc(C(F)(F)F)c2)CC[C@@H](N2CC[C@]3(C=Cc4ccccc43)[C@@H](C)C2)C1 [(1S,3R)-N-{[3-fluoro-5-(trifluoromethyl)phenyl]methyl}-3-[(1S,5'R)-5'-methylspiro[indene-1,4'-piperidine]-1'-yl]-1-(propan-2-yl)cyclopentane-1-carboxamide] |
| 0.23 | C[C@H]1CN([C@@H]2CC[C@@](C(=O)NCc3cc(F)cc(C(F)(F)F)c3)(C3CC3)C2)CC[C@]12C=Cc1ccccc12 [(1S,3R)-1-cyclopropyl-N-{[3-fluoro-5-(trifluoromethyl)phenyl]methyl}-3-[(1S,5'R)-5'-methylspiro[indene-1,4'-piperidine]-1'-yl]cyclopentane-1-carboxamide] |
| 0.32 | CC(C)C[C@]1(C(=O)NCc2cc(F)cc(C(F)(F)F)c2)CC[C@@H](N2CC[C@]3(C=Cc4ccccc43)[C@@H](C)C2)C1 [(1R,3R)-N-{[3-fluoro-5-(trifluoromethyl)phenyl]methyl}-1-(2-methylpropyl)-3-[(1S,5'R)-5'-methylspiro[indene-1,4'-piperidine]-1'-yl]cyclopentane-1-carboxamide] |
